The term IC50 denotes the point on the concentration scale where inhibition reaches its midpoint.

Where only a bound is given, the exact number is not on record here.

The experiment has as its target Recombinant human KIF18A (1-467His-tagged) protein (Homo sapiens (Human), UniProt Q8NI77). As to the kind of experiment: KIF18A enzyme assay (microtubule-stimulated ATPase activity, ADP-Glo). The class given is biochemical. The settings on record: 30 nM KIF18A, ATP 75 μM, read-out: inhibitory activity against KIF18A IC50. The protocol:
Biological Example 1. Assay for In Vitro Inhibition of Enzymatic Activity of KIF18A by Compounds of the Present Invention
KIF18A enzyme assay: The enzymatic activity of KIF18A after treatment with the compounds was measured by an assay of microtubule-stimulated ATPase activity. ADP generated from the ATPase reaction was measured in this assay. The compounds were serially diluted 2-fold in DMSO over a range of 22 concentration points. Recombinant human KIF18A (1-467His-tagged) protein was expressed using a baculovirus system. Concentrations of KIF18A protein, microtubules, and ATP in the reaction were optimized for a standardized homogenous enzyme assay using an ADP-Glo kinase/ATPase assay kit. A reaction buffer [(15 mM Tris, pH 7.5), 10 mM MgCl2, 0.01% PluronicF-68, 1 μM paclitaxel, and 30 μg/mL pig microtubules] was prepared. The compounds and KIF18A protein (30 nM) were added to the prepared reaction buffer, and the reaction mixture was incubated at room temperature for 15 min, followed by addition of ATP (Km, 75 μM). The resulting reaction mixture was incubated at room temperature for another 15 min. 5 μL of ADP-Glo reagent and 2.5 μL of the reaction mixture were mixed and the resulting mixture was incubated at room temperature for 40 min. 10 μL of ADP-Glo detection reagent was added and the mixture was incubated at room temperature for 40 min. Luminescence was measured using a microplate reader and compared with that of the DMSO group, and then the inhibition percentages and IC50 values of the compounds were calculated.
On the technique in general: In ADP-Glo the light output rises with the ADP produced.

Chain of Recombinant human KIF18A (1-467His-tagged) protein (Q8NI77 1-467): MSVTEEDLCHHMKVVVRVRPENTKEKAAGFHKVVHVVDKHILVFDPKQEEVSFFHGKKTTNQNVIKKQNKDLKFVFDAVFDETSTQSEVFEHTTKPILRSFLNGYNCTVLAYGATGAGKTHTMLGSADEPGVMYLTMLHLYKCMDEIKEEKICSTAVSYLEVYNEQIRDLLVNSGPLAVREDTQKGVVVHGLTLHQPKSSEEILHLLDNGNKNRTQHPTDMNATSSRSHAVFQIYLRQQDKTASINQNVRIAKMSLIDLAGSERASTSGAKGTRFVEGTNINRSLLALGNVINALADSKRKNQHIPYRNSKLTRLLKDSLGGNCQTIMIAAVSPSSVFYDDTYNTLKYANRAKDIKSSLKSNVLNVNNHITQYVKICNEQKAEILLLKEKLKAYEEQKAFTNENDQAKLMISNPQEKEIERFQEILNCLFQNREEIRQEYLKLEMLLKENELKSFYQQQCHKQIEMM
Chain of Recombinant human KIF18A (1-467His-tagged) protein (P02550 whole entry partner): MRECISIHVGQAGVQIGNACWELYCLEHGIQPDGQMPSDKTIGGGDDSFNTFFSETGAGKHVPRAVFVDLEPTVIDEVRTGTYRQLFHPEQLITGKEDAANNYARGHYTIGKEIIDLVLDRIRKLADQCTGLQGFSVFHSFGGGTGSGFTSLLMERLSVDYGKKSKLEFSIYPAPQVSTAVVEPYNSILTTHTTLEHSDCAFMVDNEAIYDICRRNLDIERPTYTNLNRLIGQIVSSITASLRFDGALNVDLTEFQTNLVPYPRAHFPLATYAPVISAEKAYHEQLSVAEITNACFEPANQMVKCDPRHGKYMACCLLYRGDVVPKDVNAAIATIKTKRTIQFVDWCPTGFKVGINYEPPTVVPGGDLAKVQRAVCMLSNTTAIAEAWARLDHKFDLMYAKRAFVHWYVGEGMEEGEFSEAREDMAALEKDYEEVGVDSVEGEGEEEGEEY
Chain of Recombinant human KIF18A (1-467His-tagged) protein (P02554 whole entry partner): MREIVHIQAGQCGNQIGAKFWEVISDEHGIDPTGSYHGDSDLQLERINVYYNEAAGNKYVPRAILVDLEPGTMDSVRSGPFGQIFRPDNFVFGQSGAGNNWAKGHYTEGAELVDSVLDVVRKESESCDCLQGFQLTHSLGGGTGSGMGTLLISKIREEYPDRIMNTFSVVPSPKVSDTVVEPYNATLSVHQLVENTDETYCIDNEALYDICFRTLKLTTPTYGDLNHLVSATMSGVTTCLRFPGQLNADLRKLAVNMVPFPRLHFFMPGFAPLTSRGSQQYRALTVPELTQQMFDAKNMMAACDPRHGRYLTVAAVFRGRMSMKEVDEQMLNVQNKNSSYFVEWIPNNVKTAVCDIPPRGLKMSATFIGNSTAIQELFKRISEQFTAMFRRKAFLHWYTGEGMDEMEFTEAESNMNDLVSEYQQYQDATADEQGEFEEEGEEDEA

In the case of `CN1CCc2cc(NC(=O)c3ccc(S(=O)(=O)NCCO)cc3N3CCC4(CC3)CC4)nc(N3CCC4(CC4)C3)c21` [Compound 342], the IC50 was at most 100 nM.

Turning to `Cn1ccc2cc(NC(=O)c3ccc(NS(=O)(=O)CCO)cc3N3CCC4(CC3)CC4)nc(N3CC4CC4C3)c21` (centres unmarked) [Compound 458], the IC50 was at most 100 nM.

For `O=C(Nc1cc2ccoc2c(N2CC(F)(F)C2)n1)c1ccc(NS(=O)(=O)CCO)cc1N1CCC2(CC1)CC2` [Compound 196], the IC50 was at most 100 nM. In the case of `C[C@@H](CO)S(=O)(=O)Nc1ccc(NC(=O)c2cc(N3CCC(F)(F)CC3)c3occc3c2)c(N2CCC3(CC2)CC3)c1` [Compound 173] it was at most 100 nM. The figure for `O=C(Nc1cc2ccoc2c(N2CCOCC2)n1)c1ccc(NS(=O)(=O)CCO)cc1N1CCC2(CC1)CC2` [Compound 204] is at most 100 nM. `O=C(Nc1cc2nc[nH]c2c(N2CCC(F)(F)CC2)n1)c1ccc(NS(=O)(=O)CCO)cc1N1CCC2(CC1)CC2` [Compound 526]: the IC50 is at most 100 nM. As for `O=C(Nc1ccc(NS(=O)(=O)CCO)cc1N1CCC2(CC1)CC2)c1cc2ccoc2c(OCCC(F)(F)F)n1` [Compound 229], the half-inhibitory concentration (IC50) is at most 100 nM. In the case of `CC(C)(CO)Nc1nc(C(=O)Nc2ccc(S(=O)(=O)NCCO)cc2N2CCC3(CC2)CC3)cc2ccoc12` [Compound 251] it was at most 100 nM. The figure for `C[C@H]1CN(c2nc(NC(=O)c3ccc(NS(=O)(=O)CCO)cc3N3CCC4(CC3)CC4)cc3ccoc23)CCO1` [Compound 195] is at most 100 nM; for `C[C@@H](CO)S(=O)(=O)Nc1ccc(NC(=O)c2cc3ccoc3c(N3CCC(F)(F)CC3)n2)c(N2CCC3(CC2)CC3)c1` [Compound 237] it is at most 100 nM; for `Cn1ccc2cc(NC(=O)c3ccc(NS(=O)(=O)CCO)cc3N3CCC4(CC3)CC4)nc(N3CC(F)(F)C3)c21` [Compound 452] it is at most 100 nM. With `C[C@H](CO)S(=O)(=O)Nc1ccc(NC(=O)c2cc(N3CCC(F)(F)CC3)c3c(ccn3C)c2)c(N2CCC3(CC2)CC3)c1` [Compound 430], the IC50 is at most 100 nM. In the case of `Cn1ccc2cc(C(=O)Nc3ccc(S(=O)(=O)NCCO)cc3N3CCC4(CC3)CC4)nc(N3CC(F)(F)C3)c21` [Compound 500] it was at most 100 nM; in that of `CN1CCc2cc(NC(=O)c3ccc(NS(=O)(=O)CCO)cc3N3CCC4(CC3)CC4)nc(N3CCC(C)(F)C3)c21` (centres unmarked) [Compound 328], at most 100 nM; in that of `C[C@@H](CO)NS(=O)(=O)c1ccc(NC(=O)c2cc3c(c(N4CCC(F)(F)CC4)n2)N(C)CC3)c(N2CCC3(CC2)CC3)c1` [Compound 381], at most 100 nM. The figure for `C[C@@H]1CN(c2nc(NC(=O)c3ccc(NS(=O)(=O)[C@H](C)CO)cc3N3CCC4(CC3)CC4)cc3ccoc23)CCO1` [Compound 208] is at most 100 nM; for `Cn1ccc2cc(C(=O)Nc3ccc(S(=O)(=O)NCCO)cc3N3CCC4(CC3)CC4)nc(N3CCC(C)(F)C3)c21` (centres unmarked) [Compound 504] it is at most 100 nM. The figure for `O=C(Nc1cc(N2CCC(F)(F)CC2)c2ccccc2c1)c1ccc(NS(=O)(=O)CCO)cc1N1CCC2(CC1)CC2` [Compound 529] is 100 to 500 nM.

Consider `C[C@@H]1CN(c2nc(C(=O)Nc3ccc(NS(=O)(=O)[C@@H](C)CO)cc3N3CCC4(CC3)CC4)cc3ccoc23)CCO1` [Compound 239], for which the IC50 was at most 100 nM. Regarding `C[C@@H](CO)NS(=O)(=O)c1ccc(C(=O)Nc2cc3c(c(N4CCC(F)(F)CC4)n2)OCC3)c(N2CCC3(CC2)CC3)c1` [Compound 93], the IC50 was at most 100 nM.

Turning to `C[C@H]1CN(c2nc(NC(=O)c3ccc(S(=O)(=O)NCCO)cc3N3CCC4(CC3)CC4)cc3c2N(C)CC3)CCO1` [Compound 339], the IC50 is at most 100 nM. The figure for `C[C@@H]1CN(c2nc(NC(=O)c3ccc(NS(=O)(=O)[C@H](C)CO)cc3N3CCC4(CC3)CC4)cc3ccn(C)c23)CCO1` [Compound 464] is at most 100 nM; for `O=C(Nc1cc2c(c(N3CC4CC4C3)c1)OCC2)c1ccc(NS(=O)(=O)CCO)cc1N1CCC2(CC1)CC2` (centres unmarked) [Compound 10] it is at most 100 nM; for `CC(C)(CO)Nc1cc(C(=O)Nc2ccc(S(=O)(=O)NCCO)cc2N2CCC3(CC2)CC3)cc2c1OCC2` [Compound 59] it is at most 100 nM.

As to `O=C(Nc1cc2c(c(OC3CCC3)n1)OCC2)c1ccc(S(=O)(=O)NCCO)cc1N1CCC2(CC1)CC2` [Compound 87], the IC50 was at most 100 nM. As to `O=C(Nc1ccc(NS(=O)(=O)CCO)cc1N1CCC2(CC1)CC2)c1cc(N2CCC(F)CC2)c2occc2c1` [Compound 169], the IC50 was at most 100 nM. In the case of `CC1(F)CCN(c2nc(C(=O)Nc3ccc(NS(=O)(=O)CCO)cc3N3CCC4(CC3)CC4)cc3c2OCC3)C1` (centres unmarked) [Compound 104] it was at most 100 nM; in that of `CC1(F)CCN(c2cc(NC(=O)c3ccc(NS(=O)(=O)CCO)cc3N3CCC4(CC3)CC4)cc3c2OCC3)C1` (centres unmarked) [Compound 8], at most 100 nM; in that of `CN1CCc2cc(C(=O)Nc3ccc(NS(=O)(=O)CCO)cc3N3CCC4(CC3)CC4)nc(N3CC(F)(F)C3)c21` [Compound 356], at most 100 nM.

`Cn1ccc2cc(C(=O)Nc3ccc(S(=O)(=O)NCCO)cc3N3CCC4(CC3)CC4)cc(N3CCC(F)(F)CC3)c21` [Compound 433]: the IC50 was at most 100 nM.

Take `CN1CCc2cc(C(=O)Nc3ccc(S(=O)(=O)NCCO)cc3N3CCC4(CC3)CC4)nc(N3CC(F)(F)C3)c21` [Compound 372]: the IC50 was at most 100 nM. In the case of `O=C(Nc1cc2c(c(N3CCOCC3)n1)OCC2)c1ccc(S(=O)(=O)NCCO)cc1N1CCC2(CC1)CC2` [Compound 92] it was at most 100 nM; in that of `C[C@@H]1CN(c2nc(C(=O)Nc3ccc(S(=O)(=O)NCCO)cc3N3CCC4(CC3)CC4)cc3c2OCC3)CCO1` [Compound 114], at most 100 nM. In the case of `C[C@H](CO)S(=O)(=O)Nc1ccc(C(=O)Nc2cc3c(c(N4CCC(F)(F)CC4)n2)OCC3)c(N2CCC3(CC2)CC3)c1` [Compound 78] it was at most 100 nM; in that of `O=C(Nc1cc(N2CCC(F)(F)CC2)c2occc2c1)c1ccc(S(=O)(=O)NCCO)cc1N1CCC2(CC1)CC2` [Compound 145], at most 100 nM; in that of `O=C(Nc1ccc(NS(=O)(=O)CCO)cc1N1CCC2(CC1)CC2)c1cc(OCCC(F)(F)F)c2occc2c1` [Compound 165], at most 100 nM.

`C[C@@H]1CN(c2nc(C(=O)Nc3ccc(NS(=O)(=O)CCO)cc3N3CCC4(CC3)CC4)cc3ccoc23)CCO1` [Compound 226]: the IC50 is at most 100 nM. For `O=C(Nc1ccc(NS(=O)(=O)CCO)cc1N1CCC2(CC1)CC2)c1cc(N2CCC3(CC3)C2)c2occc2c1` [Compound 166], the IC50 was at most 100 nM. In the case of `O=C(Nc1ccc(S(=O)(=O)NCCO)cc1N1CCC2(CC1)CC2)c1cc2c(c(N3CCC(F)CC3)c1)OCC2` [Compound 57] it was at most 100 nM; in that of `C[C@@H]1CN(c2cc(C(=O)Nc3ccc(S(=O)(=O)N[C@@H](C)CO)cc3N3CCC4(CC3)CC4)cc3ccoc23)CCO1` [Compound 191], at most 100 nM; in that of `CN1CCc2cc(NC(=O)c3ccc(S(=O)(=O)NCCO)cc3N3CCC4(CC3)CC4)cc(N3CCC(F)(F)CC3)c21` [Compound 273], at most 100 nM.

Regarding `C[C@H]1CN(c2nc(NC(=O)c3ccc(S(=O)(=O)NCCO)cc3N3CCC4(CC3)CC4)cc3ccoc23)CCO1` [Compound 211], the IC50 is at most 100 nM.

For the molecule `Cn1ccc2cc(C(=O)Nc3ccc(NS(=O)(=O)CCO)cc3N3CCC4(CC3)CC4)cc(NC(C)(C)CO)c21` [Compound 427], the IC50 is at most 100 nM. In the case of `O=C(Nc1cc2ncsc2c(N2CCC(F)(F)CC2)n1)c1ccc(NS(=O)(=O)CCO)cc1N1CCC2(CC1)CC2` [Compound 516] it was at most 100 nM.

In the case of `Cn1ccc2cc(NC(=O)c3ccc(NS(=O)(=O)CCO)cc3N3CCC4(CC3)CC4)nc(N3CCC(F)CC3)c21` [Compound 457], the IC50 was at most 100 nM. The figure for `CN1CCc2cc(C(=O)Nc3ccc(NS(=O)(=O)CCO)cc3N3CCC4(CC3)CC4)nc(OC3CCC3)c21` [Compound 359] is at most 100 nM. With `C[C@@H](CO)NS(=O)(=O)c1ccc(C(=O)Nc2cc3ccoc3c(N3CCC(F)(F)CC3)n2)c(N2CCC3(CC2)CC3)c1` [Compound 221], the IC50 was at most 100 nM. In the case of `Cn1ccc2cc(C(=O)Nc3ccc(S(=O)(=O)NCCO)cc3N3CCC4(CC3)CC4)cc(N3CCOCC3)c21` [Compound 444] it was at most 100 nM; in that of `O=C(Nc1cc(N2CCC(F)(F)CC2)c2nccn2c1)c1ccc(NS(=O)(=O)CCO)cc1N1CCC2(CC1)CC2` [Compound 535], at most 100 nM. In the case of `C[C@H](CO)S(=O)(=O)Nc1ccc(C(=O)Nc2cc(N3CCC(F)(F)CC3)c3c(ccn3C)c2)c(N2CCC3(CC2)CC3)c1` [Compound 398] it was at most 100 nM; in that of `C[C@@H]1CN(c2cc(C(=O)Nc3ccc(NS(=O)(=O)[C@@H](C)CO)cc3N3CCC4(CC3)CC4)cc3ccn(C)c23)CCO1` [Compound 431], at most 100 nM; in that of `O=C(Nc1ccc(NS(=O)(=O)CCO)cc1N1CCC2(CC1)CC2)c1cc(N2CCC(F)(F)CC2)c2occc2c1` [Compound 161], at most 100 nM. The figure for `Cn1ccc2cc(NC(=O)c3ccc(NS(=O)(=O)CCO)cc3N3CCC4(CC3)CC4)nc(N3CCC(C)(F)C3)c21` (centres unmarked) [Compound 456] is at most 100 nM.

The record behind these values is patent US20250197382A1, “KIF18A INHIBITOR” (WIGEN BIOMEDICINE TECHNOLOGY (SHANGHAI) CO., LTD., priority 2022, published 2025).
